{"source": "patent US20250346582A1", "about": "“SPLEEN TYROSINE KINASE INHIBITORS AND METHODS OF USE THEREOF” (THE BOARD OF TRUSTEES OF THE UNIVERSITY OF ILLINOIS, priority 2022, published 2025)", "key": {"[1]": {"target": "T1, scaffolding function of Syk (Homo sapiens, UniProt P43405)", "T1 construct": "host or cells: MV4-11 AML cells (naive and entospletinib-resistant)", "assay": "Co-immunoprecipitation with Syk, entospletinib-resistant MV4-11 cells", "type": "cell-based", "conditions": "5 μM", "description": "MV-4-11 cells were collected by centrifugation, washed twice with phosphate phosphate-buffered saline (PBS) and resuspended in the immunoprecipitation (IP) buffer (50 mM HEPES, pH 7.4, 150 mM NaCl, 1 mM MgCl2, 1 mM EGTA, and 0.25 mM GTP) with 0.2-0.5% Triton X-100 and a protease inhibitor mix (Sigma-Aldrich). Lysates were prepared after 5 min of incubation on ice by repeated pipetting and centrifugation for 10 min at 12,000 g and at 4° C. For immunoprecipitation, the SYK-specific antibody was immobilized onto 100 μl Dynabeads/protein A (ThermoFisher) and the excess antibody was washed away by placing the tube in a DynaMag magnet and removing the supernatant. The resuspended beads were then incubated with the cell extract supernatant containing 500 μg of proteins for 1 h at 4° C. The immunoprecipitates were rinsed three times with the IP buffer and eluted with 30 μl of the sample buffer containing sodium dodecyl sulfate (SDS). For detection of proteins in total extracts (i.e., Input), 30 μg of the sample was loaded in each gel lane for western blot analysis."}, "[2]": {"target": "T2, Syk-cSH2 E164Q (Homo sapiens, UniProt P43405, E164Q)", "T2 construct": "polyhistidine (N); made in house; host or cells: Escherichia coli BL21 (DE3) pLysS", "assay": "Fluorescence quenching vesicle binding assay, Syk-cSH2 E164Q mutant", "conditions": "POPC/POPS/PIP3/dabsyl-PE vesicles", "description": "The membrane-binding assay is based on fluorescence quenching of EGFP fused to a SH2 domain by a dark quencher containing lipid, dabsyl-PE, incorporated in lipid vesicles. The plate reader assay was performed using the Synergy™ Neo spectrofluorometer at 25° C. Nontreated black polystyrene 96-well plates (Corning) were used. Protein (10-50 nM) with the increasing concentration of vesicles with a given lipid composition in 20 mM Tris buffer, pH 7.4, containing 0.16 M NaCl was added to each row of wells and the EGFP fluorescence emission at 516 nm was measured with excitation set at 485 nm. Z′ factor for the assay system was determined as described^74. Imax and IC50 values of inhibitors were determined using the equation, I=Imax/(1+IC50/[I]) where I and [I] indicate % inhibition and inhibitor concentration, respectively. The average and standard deviation values were obtained from triplicate determinations."}, "[3]": {"target": "T3, Syk (Homo sapiens, UniProt P43405)", "T3 construct": "host or cells: MV4-11 AML cells (naive and entospletinib-resistant)", "assay": "Streptavidin pull down assay with WC36B in MV4-11 cells", "type": "cell-based", "conditions": "WC36B-streptavidin pull down", "description": "Streptavidin-coated beads (Dynabeads™ M280 streptavidin beads; ThermoFisher) were washed twice with 1 ml of PBST (PBS+0.1% Tween 20) and resuspended in 100 μl of PBST. WC36B (or biotin) (10 mM) was added to 100 μl of the bead suspension and the mixture was incubated at room temperature for 15 min with gentle shaking. The mixture was then vortexed for 5 s and the tube was placed on a magnet for 1 min. After discarding the supernatant, the beads were resuspended in the same volume of the washing buffer. Washing is repeated three times to remove excess WC36B. WC36B-coated beads were then incubated with the cell lysate (MV-4-11) for 30 min at room temperature with gentle shaking. Protein-coated beads were separated with a magnet for 2-3 min and washed 4-5 times with PBS containing 0.1% BSA. The protein was then removed from the beads by boiling the beads in the SDS-polyacrylamide gel electrophoresis (PAGE) application buffer. Samples were concentrated for the mass spectrometry analysis and the western blot assay."}, "[4]": {"system": "Syk WT, E164D and E164Q", "assay": "Phosphorylation in Syk-deficient MV4-11 cells re-expressing Syk WT or E164 mutants", "type": "cell-based, human", "conditions": "Syk-deficient MV4-11 cells with full-length E164D or E164Q; 5 μM overnight", "description": "(§1) FIGS. 5A-5B show cellular target validation of WC36. (a) Inhibition of Syk WT and WC36-binding site mutants by WC36. Entospletinib-resistant MV4-11 cells were treated with shRNA to suppress the expression of endogenous Syk and then transfected with exogenous Syk-WT and four Syk-[…] genes, respectively. These constructs harbor silent mutations to avoid gene suppression by Syk ShRNA. Phosphorylation of Syk and ERK1/2 in these cells was then monitored before and after treatment with 5 μM WC36 overnight. […] (b) Western blot analysis of WC36B-binding proteins captured by pull-down by streptavidin beads. Biotin was used as a negative control. GAPDH was used as a gel loading control.\n(§2) Cells were seeded at a density of 3.0×10^5 cells/well prior to incubation with inhibitors. Cells were incubated with 1-5 μM of Syk inhibitors overnight and stimulated with different antibodies: IgG2 for AML cells, IgM for Raji B cells, and OKT3 (Biolegend) for Jurkat cells. The cells were lysed in NP40 lysis buffer (50 mM Tris, pH 7.5, 150 mM NaCl, 1 mM EDTA, 1% NP40, 10% glycerol, 10 mM NaF, 10 mM Na3VO4, and the protease inhibitor cocktail) at 4° C. and the cell debris was removed by centrifugation. Samples were analyzed by SDS-PAGE. […] The chemiluminescence intensity of protein bands in the gel was analyzed and documented by the Azure 500Q Imaging System."}, "[5]": {"target": "T4, Syk WT, E164D and E164Q (Homo sapiens, UniProt P43405)", "T4 construct": "When the full-length E164D and E164Q, respectively, were introduced into Syk-deficient MV4-11 cells; expressed in transfected cells; host or cells: entospletinib-resistant MV4-11 cells with shRNA knockdown of endogenous Syk", "assay": "Phosphorylation in Syk-deficient MV4-11 cells re-expressing Syk WT or E164 mutants", "type": "cell-based", "conditions": "Syk WT added back to Syk-deficient AML cells; 5 μM overnight", "description": "as §1, §2"}, "[6]": {"system": "Syk activation", "assay": "Immunoblotting of patient-derived primary AML cells", "type": "cell-based", "conditions": "primary AML cells from 4 patients refractory or relapsed", "description": "Primary samples were obtained from an existing HEMBANK at UIC under an IRB approved research protocol (protocol #2021-0723). Cells were processed and treated with inhibitors as reported previously^75. For primary AML samples, mononuclear cells isolated by Ficoll density centrifugation were utilized. mononuclear cells were treated in culture at a density of 0.5×10^6/ml in StemSpan with CD34 expansion supplement (Stemcell Technologies) for 24 h and then harvested for immunoblotting assays. In parallel 2×10^4 cells were plated in triplicate for each treatment condition in Methoccult H4434 (Stem Cell Technologies) in the presence of drug. At days 12-14, colonies were manually enumerated under light microscopy and normalized to DMSO control for each individual sample due to interpatient variability in colony forming activity. Normalized colony forming units for pooled treated and untreated samples (n=4) were compared using unpaired 2-tailed t test. p<0.05 was considered statistically significant."}}, "data": [{"molecule": "[N-]=[N+]=C(C(=O)OC1CCCCC1)C(Nc1ncccn1)c1c[nH]c2ccccc12", "note": "(racemic) [WC36, Cyclohexyl 2-diazo-3-(1H-indol-3-yl)-3-(pyrimidin-2-ylamino)propanoate]", "values": [{"measurement": "suppression of co-precipitation with Syk", "setting": "[1]", "value": "greatly suppressed co-precipitation"}, {"measurement": "inhibition of membrane binding of Syk-cSH2 E164Q", "setting": "[2]", "value": "refractory to WC36 inhibition"}, {"measurement": "competition with WC36B for Syk binding", "setting": "[3]", "value": "able to compete with WC36B for Syk binding"}, {"measurement": "inhibition of phosphorylation of Syk E164D/E164Q and ERK1/2", "setting": "[4]", "value": "did not inhibit phosphorylation of these mutants and ERK1/2"}, {"measurement": "inhibition of phosphorylation of Syk WT and ERK1/2", "setting": "[5]", "value": "potently suppressed phosphorylation of Syk WT and ERK1/2"}, {"measurement": "inhibition of Syk activation", "setting": "[6]", "value": "significant inhibition of Syk activation"}]}]}
